According to PubChem BioAssay (NCI):
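These data come from cells grown in 96-well plates and exposed to compound for 48 hours at five concentrations. GI50: concentration for 50% inhibition of growth. TGI: concentration producing complete growth inhibition.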

Columns and labels:
Assay in all cases: NCI anticancer screen, dose series, 48 h
A498 renal = tested on: A498 renal
CCRF-CEM leukemia = tested on: CCRF-CEM leukemia
SF-295 CNS = tested on: SF-295 CNS
UACC-62 melanoma = tested on: UACC-62 melanoma
OVCAR-8 ovarian = tested on: OVCAR-8 ovarian
HCT-116 colon = tested on: HCT-116 colon
NCI-H23 lung = tested on: NCI-H23 lung
LOX IMVI melanoma = tested on: LOX IMVI melanoma
UO-31 renal = tested on: UO-31 renal
HCC-2998 colon = tested on: HCC-2998 colon

SMILES | TGI (A498 renal) | TGI (CCRF-CEM leukemia) | TGI (SF-295 CNS) | TGI (UACC-62 melanoma) | TGI (OVCAR-8 ovarian) | TGI (HCT-116 colon) | TGI (NCI-H23 lung) | TGI (LOX IMVI melanoma) | TGI (UO-31 renal) | GI50 (A498 renal) | GI50 (CCRF-CEM leukemia) | GI50 (SF-295 CNS) | GI50 (UACC-62 melanoma) | GI50 (OVCAR-8 ovarian) | GI50 (HCT-116 colon) | GI50 (NCI-H23 lung) | GI50 (HCC-2998 colon) | TGI (HCC-2998 colon) | GI50 (UO-31 renal) | GI50 (LOX IMVI melanoma)
CCc1ncnc2cc(OCC3CO3)c(OC)cc12 (stereo not drawn) | 58.1 µM | 27.2 µM | 30.3 µM | 18.4 µM | 14.3 µM | > 33.7 µM | 16.2 µM | > 46.9 µM | 18.4 µM |  |  |  |  |  |  |  |  |  |  | 
C[C@]12CC[C@@H]3c4ccc(O)cc4CC[C@H]3[C@@H]1CC[C@@H]2NS(=O)(=O)c1ccc2ccccc2c1 | 4.01 µM | > 100 µM | 6.03 µM | 3.9 µM | 11.8 µM | 10.6 µM | 14.8 µM |  | 5.57 µM | 1.72 µM | 2.94 µM | 2.25 µM | 1.75 µM | 3.16 µM | 2.98 µM | 3.34 µM | 4.24 µM | 15.5 µM | 1.83 µM | 
O=C1c2c(c3c4ccccc4[nH]c3c3[nH]c4ccccc4c23)C(=O)N1Cc1ccccc1 |  | 13.3 µM | 13.3 µM | 16.2 µM | 13.8 µM | 8.76 µM | 6.16 µM | 8.31 µM | 6.69 µM |  |  |  |  |  |  |  |  | 16.3 µM |  | 
Cc1cc(NS(=O)(=O)c2ccc(Nc3c4ccccc4nc4c(C(=O)Nc5ccc(S(=O)(=O)N=C(N)N)cc5)ccc(Cl)c34)cc2)no1 | > 100 µM |  | > 100 µM | 73.5 µM | 38.5 µM | > 100 µM | 92.6 µM | 36.8 µM | > 100 µM |  |  |  |  |  |  |  |  | > 100 µM |  | 
COc1cc2ccc(CC(N)=O)cc2cc1OC |  | > 100 µM | > 100 µM | > 100 µM | > 100 µM | > 100 µM | > 100 µM | > 100 µM | > 100 µM |  |  |  |  |  |  |  |  |  |  | 
NCCN1C(=O)c2ccccc2C1(O)c1ccc(Cl)cc1 (stereo not drawn) | 27.8 µM | 57 µM | 55.3 µM | 30.7 µM | > 100 µM | 31.7 µM | > 100 µM | 32.8 µM |  |  |  |  |  |  |  |  |  |  |  | 
Clc1ccc(C2=NOC3C4CCC(C4)C23)cc1 (stereo not drawn) | > 100 µM | > 100 µM | > 100 µM | > 100 µM | > 100 µM | > 100 µM | > 100 µM |  | > 100 µM |  |  |  |  |  |  |  |  | > 100 µM |  | 
Brc1ccc(C2SCc3nc4ccccc4n32)cc1 (stereo not drawn) |  | > 100 µM | 24.8 µM | 21.1 µM | 26.6 µM | 19.6 µM | 15.3 µM | 21 µM | 32 µM |  |  |  |  |  |  |  |  |  |  | 
C[n+]1c(/C=C/c2ccc(/C=N/NC(=O)c3ccc(C(=O)N/N=C/c4ccc(/C=C/c5cn6ccccc6[n+]5C)cc4)cc3)cc2)cn2ccccc21 |  | 49.8 µM | > 100 µM |  | > 100 µM | > 100 µM | > 100 µM | > 100 µM | > 100 µM |  |  |  |  |  |  |  |  | > 100 µM |  | 
CC(C)(C)N=CN(C=C(c1ccccc1)c1ccccc1)C1CCCCC1 | 91.4 µM | > 100 µM | 93.3 µM | > 100 µM | > 100 µM | > 100 µM | > 100 µM | 92.3 µM |  |  |  |  |  |  |  |  |  |  |  | 
COc1ccc(C#CC2=C(c3cc(OC)c(OC)c(OC)c3)C(=O)OC2)cc1 | 30.1 µM | > 50 µM | 43.5 µM | 18.4 µM | 22.5 µM | > 50 µM | 17.3 µM |  | > 50 µM | 8.21 µM | 1.03 µM | 1.75 µM | 5.23 µM | 3.23 µM | 1.8 µM | 5.77 µM |  |  | 18.9 µM | 
C/C=C1\CCC2c3[nH]c4ccccc4c3CCN2C1 (stereo not drawn) | > 100 µM | > 100 µM | > 100 µM | > 100 µM | > 100 µM | > 100 µM | > 100 µM |  | > 100 µM |  |  |  |  |  |  |  |  |  |  | 
CCCCN1CCN(c2ccc3nc(-c4ccc5nc(-c6ccc(OCC)c(OCC)c6)[nH]c5c4)[nH]c3c2)CC1 | 2.47 µM | 3.06 µM |  | 2.18 µM |  | 1.66 µM |  |  | 5.8 µM | 1.18 µM | 0.538 µM |  | 0.686 µM |  | 0.431 µM |  |  |  | 2 µM | 
N#C/C(=C\c1cccc2cnccc12)N1N=NC2C=CC=CC21 (stereo not drawn) | 5.59 µM |  | > 100 µM |  | > 100 µM |  | > 100 µM | > 100 µM | > 100 µM | 1.63 µM |  | 32.4 µM |  | 3.32 µM |  | 3.27 µM | 4.32 µM | > 100 µM | 0.602 µM | 3.01 µM
Cc1ccc(C(=O)N=Nc2c(O)[nH]c3ccc(Cl)cc23)cc1 | > 50 µM | > 50 µM | > 50 µM | 23.1 µM | 32.4 µM | > 50 µM | > 50 µM | > 50 µM | > 50 µM | 35.3 µM | 0.322 µM | 44.5 µM | 9.3 µM | 10.8 µM | 10.4 µM | 16.9 µM |  |  | > 50 µM | 31.2 µM
CC/C(CC(=O)CCC(=O)Nc1ccc(C)c(C)c1)=N\NC(=O)C(N)=O | > 100 µM | > 100 µM | > 100 µM | > 100 µM | > 100 µM | > 100 µM | > 100 µM |  | > 100 µM |  |  |  |  |  |  |  |  |  |  | 
